Test results: patent US20210292680A1, “MULTIFUNCTIONAL AROMATIC ALCOHOLS FOR PERSONAL CARE, HOME CARE AND INDUSTRIAL AND INSTITUTIONAL COMPOSITIONS” (EMERALD KALAMA CHEMICAL, LLC, priority 2018, published 2021)

Key:
[1] = Shear ramp, aqueous solution (viscosity); type: physicochemical; details: hand dish wash
Procedure: Shear Ramp aqueous solution: The 40 mm cone and plate geometry was used on an AR2000ex rheometer at 25° C. A gap of 29 μm was used. The shear was ramped from 0 s^−1 to 2000 s^−1 over six minutes. Shear rate is expressed in s^−1 or 1/s. Viscosity readings are expressed in Pa·s.
At 0.5 wt. %, the low shear viscosity increased roughly 36% over the control, while high shear viscosity increased roughly 43%. (Results not shown.)
R=4 Aromatic Alcohols. Similarly, viscosity modifying behavior is observed in a hand dish wash aqueous surfactant solution using an aromatic alcohol, where R=4 carbons (2-methyl-3-phenylpropanol). […] For 0.5 wt. % aromatic alcohol, the low shear viscosity increased 110% over the control, while high shear viscosity increased approximately 37%. At 1.0 wt. % aromatic alcohol, the viscosity profile changed, yielding increases in low and high shear viscosity of 56% and 94%, respectively.

[2] = Time to dissolve; type: physicochemical; details: water with 1 wt. % aromatic alcohol
Procedure: Time to dissolve: Aromatic alcohol, 1% by weight, was added to deionized water to make 500 mL of solution. Stirring was started at 300 rpm. Test ingredient was added to both a 500 mL control deionized water and the 500 mL aromatic alcohol solution as a stopwatch timer was started. The timer was stopped when solution was completely clear and/or no particles of the test ingredient were visible in either sample. This is noted as the “dissolution time”, or time to dissolve. Aromatic alcohols can help solubilize hard-to-dissolve formulation ingredients more quickly and/or without the use of heat. The addition of 1.0 wt. % aromatic alcohol decreased the dissolution time of several common, hard-to-dissolve ingredients as shown in Table 1 below. Table 1 reflects the time to completely dissolve ingredients in water (Control) or water with 1 wt. % aromatic alcohol (R=3 denotes 3-phenylpropanol; R=4 denotes 2-methyl-3-phenylpropanol).

[3] = Process defoaming evaluation (modified ASTM E2407-04); details: 0.4 wt. % aromatic alcohol; 2.0 wt. % BioSoft N1-7 solution
Procedure: Defoaming evaluation: Process defoaming was tested using a modified ASTM method (E2407-04 (2015) Standard Test Method for Effectiveness of Defoaming Agents). 250 mL of a 2.0 wt. % surfactant solution was blended at the highest speed setting for 30 seconds, then let sit for 3 minutes. The initial foam height is measured, and then 0.4 wt. % defoamer is dropped onto the surface of the foam. The blender is turned on low speed and the solution is mixed for 1 minute. Foam height is re-measured after an additional five minutes of sitting.
Process defoaming was tested using a modified ASTM method (E2407-04 (2015) Standard Test Method for Effectiveness of Defoaming Agents) to assess surfactants and determine if there was a relationship between foam destabilization and surfactant type. Two different surfactant solutions were tested. 2.0 wt. % surfactant solutions were prepared as controls using BioSoft® N1-7 and SLES. Thereafter, 0.4 wt. % aromatic alcohols (R=3 and R=4) were added to each surfactant solution for comparison to the controls. After agitation to generate foam, the percent of initial foam volume loss was far less for the control (without aromatic alcohols).

[4] = Final product foam stability (Blender Foam Volume/Drainage method); details: 0.5 wt. % aromatic alcohol incorporated into products
Procedure: Final product foam stability was tested using Blender Foam Volume/Drainage method published by Henkel Corp. 1981.
In the foam loss evaluation above, foam destabilization occurred at the time of addition (with mixing) of the aromatic alcohol. Further testing was performed to determine if the foaming ability of final products would be negatively impacted if aromatic alcohols were added to the formulations during the production process. A variety of commercial products were selected for testing, and 0.5 wt. % of aromatic alcohol (R=3, 3-phenylpropanol) was added to each. […] Foam stability of these commercial products was not reduced by the addition of aromatic alcohol.

[5] = Shear ramp, oil-in-water emulsion (viscosity); type: physicochemical; details: Vanicream skin lotion, concentrations up to 0.5 wt. % aromatic alcohol, 25° C
Procedure: Shear Ramp oil-in-water emulsion: A 25 mm parallel plate geometry was used on an AR2000ex rheometer at 25° C. A gap of 600 μm was used. The shear was ramped from 0 s^−1 to 100 s^−1 over one minute. Viscosity readings are expressed in Pa·s.
R=3 Aromatic Alcohol. An R=3 aromatic alcohol, i.e., 3-phenylpropanol, was tested in a commercial oil-in-water emulsion, i.e., Vanicream® skin lotion, at 0.1 wt. %, 0.25 wt. % and 0.5 wt. % addition and compared to a control (without aromatic alcohol). […] The low shear (at 10 s^−1) viscosity was increased 68% over the control, while high shear viscosity (at 70 s^−1) increased roughly 100% (FIG. 1). The increase in high and low shear viscosity achieved desirable rheological traits such as richness, creaminess, and enhanced texture and skin feel in this end use personal care product with the addition of the aromatic alcohol. This unexpected result allows personal care and home care formulators, among others, to reduce or eliminate use of separate rheology modifiers to manipulate the viscosity of the final product.

[6] = Formulation stability of general purpose cleaner on storage; type: physicochemical; details: 0.5 wt. % aromatic alcohol; pH 7; 7 days at 22° C.
Description: Rapid and complete dissolution of raw materials into aqueous solutions can prevent problems with solution instability over time. For example, a general purpose cleaner containing sodium coco fatty alcohol sulfate and 0.1 wt. % of either hydroxyethyl cellulose or xanthan gum (Table 2) becomes unstable over time across a range of pH values.
Panel (b) of FIG. 10 compares a general purpose cleaner containing hydroxyethyl cellulose at pH 7 with (right side of panel) and without (left side of panel) the use of 0.5 wt. % aromatic alcohol, stored at room temperature for one week, then shaken to disperse precipitants. Panel (c) of FIG. 10 compares a general purpose cleaner containing xanthan gum at pH 5 with (right side of panel) and without (left side of panel) the use of 0.5 wt. % aromatic alcohol (right,) stored at room temperature for one week, then shaken to disperse precipitants.
Similar observations were made with formulations of a general purpose cleaner in the absence of hydroxyethyl cellulose or xanthan gum but containing sodium coco fatty alcohol sulfate surfactant (FIG. 11). FIG. 11 compares a sample of a general purpose cleaner at pH 7 with and without 0.5 wt. % aromatic alcohol (R=3, 3-phenylpropanol). […]

[7] = Coco fatty alcohol sulfate 2.0 wt. %

high shear viscosity increase over the control ([1]; 0.5 wt. % aromatic alcohol) | low shear viscosity increase over the control ([1]; 0.5 wt. % aromatic alcohol) | high shear viscosity increase over the control ([1]; 1.0 wt. % aromatic alcohol) | low shear viscosity increase over the control ([1]; 1.0 wt. % aromatic alcohol) | Time to Dissolve at 22° C. ([2]; 1,2-octanediol 1.0 wt. %) | Time to Dissolve at 22° C. [2, 7] | foam destabilization (foam loss, % of initial foam volume) [3] | foam stability of commercial products [4] | low shear viscosity increase over the control ([5]; at 10 s^-1) | high shear viscosity increase over the control ([5]; at 70 s^-1) | homogeneity of general purpose cleaner without hydroxyethyl cellulose or xanthan gum, containing coco fatty alcohol sulfate [6] | Structure (SMILES)
approximately 37% | 110% | 94% | 56% | 7.8 min | 3.5 min | significantly destabilized foam | – | – | – | – | CC(CO)Cc1ccccc1 (stereo not shown) [2-methyl-3-phenylpropanol]
roughly 43% | roughly 36% | – | – | 8.1 min | 4.0 min | significantly destabilized foam | not reduced | 68% | roughly 100% | remained homogeneous | OCCCc1ccccc1 [3-phenylpropanol]
